Where only a bound is given, the exact number is not on record here.

For the data set, the system named is Tetranychus urticae. The data set can be described thus: Efficacy test against Tetranychus urticae (adult mites on kidney bean plant, spray). The data set is classed as in vivo. The following applies: emulsion diluted to 31 ppm, sprayed; organic phosphorous-resistant adult females; 3 days after spraying. The procedure: Efficacy Test Against Tetranychus urticae
Seventeen organic phosphorous-resistant adult female Tetranychus urticae mites were inoculated onto the first leaves of a kidney bean plant planted in a No. 3 pot 7 to 10 days after germination. Next, an emulsion was prepared having the formula indicated in the aforementioned Preparation example 2. […] The kidney bean plant was then placed in a temperature-controlled room at a temperature of 25° C. and humidity of 65%. The adult insect mortality rates were investigated 3 days after spraying. The test was repeated twice.

Take `COC(C)COc1cc(C(F)(F)F)ccc1OC1CC2CCCC(C1)N2Oc1ccc(C(F)(F)F)cn1` (stereo not shown) [H-81]: the insect mortality rate is given as at least 80%.

For the origin of these results see patent publication US8980912B2, “Cyclic amine compound and acaricide” (Nippon Soda Co., Ltd., priority 2010, dated 2015).
